Where a SMILES comes first, the peptide text is derived from it.
Assays:
[1] = biological target: Wnt-responsive promoter (TCF/LEF); experiment: Wnt-dependent luciferase reporter assay; type: cell-based, murine
Method in brief: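 EC50 (uM) derived from inhibition of luminescence in Wnt3a-stimulated murine 3T3 cells expressing luciferase under a TCF/LEF promoter, with peptides added across a concentration range and vehicle as control.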

[2] = % Viability non-Wnt responsive cells
β-catenin = biological target: T1, β-catenin (Homo sapiens, UniProt P35222); experiment: KD50 measurement using competitive fluorescence polarization (FP) with labelled TCF4; type: binding; conditions: fluorescence polarization, β-catenin; for Kd: read-out: β-Cat FP KD
T1 sequence (P35222 1-781): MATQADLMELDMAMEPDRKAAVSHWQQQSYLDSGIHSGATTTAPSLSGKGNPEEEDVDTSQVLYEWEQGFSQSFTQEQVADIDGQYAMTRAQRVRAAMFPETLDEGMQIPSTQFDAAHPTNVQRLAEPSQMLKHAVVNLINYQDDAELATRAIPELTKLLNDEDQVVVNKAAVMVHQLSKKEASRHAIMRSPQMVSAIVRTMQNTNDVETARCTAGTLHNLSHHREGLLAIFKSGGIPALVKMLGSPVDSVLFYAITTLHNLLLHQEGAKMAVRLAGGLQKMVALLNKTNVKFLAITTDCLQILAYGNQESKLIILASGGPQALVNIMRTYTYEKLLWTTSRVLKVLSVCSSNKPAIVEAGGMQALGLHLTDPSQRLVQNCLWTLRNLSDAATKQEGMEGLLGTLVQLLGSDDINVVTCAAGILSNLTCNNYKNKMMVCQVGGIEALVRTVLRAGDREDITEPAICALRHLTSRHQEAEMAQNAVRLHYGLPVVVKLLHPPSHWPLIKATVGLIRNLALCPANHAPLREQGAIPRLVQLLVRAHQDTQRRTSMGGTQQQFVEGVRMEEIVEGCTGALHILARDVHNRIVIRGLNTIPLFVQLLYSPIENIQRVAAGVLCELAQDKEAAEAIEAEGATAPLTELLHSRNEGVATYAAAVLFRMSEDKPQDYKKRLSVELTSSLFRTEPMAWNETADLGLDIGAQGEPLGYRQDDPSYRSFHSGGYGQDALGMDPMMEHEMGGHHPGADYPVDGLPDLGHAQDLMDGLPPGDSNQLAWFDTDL
Method in brief: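 Polarization readout (470 nm excitation, 520 nm emission) tracks loss of labelled TCF4 binding to β-catenin as test compound competes. Conditions were 5 nM tracer, 100 nM β-catenin, room temperature, compound serially diluted from 10 nM to 30 uM; run in triplicate experiments.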

CC[C@H](C)[C@H](NC(=O)[C@H](CC(C)C)NC(=O)[C@H](Cc1ccccc1)NC(=O)[C@H](Cc1c[nH]c2ccccc12)NC(=O)[C@@H](N)CCSC)C(=O)N[C@@H](Cc1c[nH]cn1)C(=O)N[C@@H](Cc1ccccc1)C(=O)N[C@@H](Cc1c[nH]c2ccccc12)C(=O)NCC(=O)O [compound 163] (H-MWFLIHFWG-OH)
EC50 [1]: < 7.5 µM | viability [2]: 100% | Kd (β-catenin): > 30 µM

CC[C@H](C)[C@H](NC(=O)[C@H](CC(C)C)NC(=O)[C@H](Cc1ccccc1)NC(=O)[C@@H](N)Cc1c[nH]c2ccccc12)C(=O)N[C@@H](CO)C(=O)N[C@H](C(=O)N[C@@H](Cc1c[nH]c2ccccc12)C(=O)O)[C@@H](C)O [compound 103] (H-WFLISTW-OH)
EC50 [1]: 15 to 22.5 µM | viability [2]: 102% | β-Cat FP Hill slope (β-catenin): 1.71 | Kd (β-catenin): 1 to 10 µM

CC[C@H](C)[C@H](NC(=O)[C@H](CC(C)C)NC(=O)[C@@H](NC(=O)[C@H](Cc1c[nH]c2ccccc12)NC(=O)[C@@H](N)CCCNC(=N)N)[C@@H](C)CC)C(=O)N[C@@H](CS)C(=O)N[C@@H](Cc1ccccc1)C(=O)N[C@@H](Cc1c[nH]c2ccccc12)C(=O)NCC(=O)O [compound 119] (H-RWILICFWG-OH)
EC50 [1]: 7.5 to 15 µM | viability [2]: 143% | β-Cat FP Hill slope (β-catenin): 0.7 | Kd (β-catenin): 1 to 10 µM

CC[C@H](C)[C@H](NC(=O)[C@H](Cc1c[nH]c2ccccc12)NC(=O)[C@@H](N)CCSC)C(=O)N[C@@H](CC(C)C)C(=O)N[C@H](C(=O)NC(C)(CO)C(=O)N[C@@H](Cc1ccccc1)C(=O)N[C@@H](Cc1c[nH]c2ccccc12)C(=O)NCC(=O)O)[C@@H](C)CC (stereo partly shown) [compound 136] (HELM PEPTIDE1{M.W.I.L.I.[CC(CO)(N[*:1])C(=O)[*:2]].F.W.G}$$$$V2.0)
EC50 [1]: > 30 µM | viability [2]: 106% | β-Cat FP Hill slope (β-catenin): 0.9 | Kd (β-catenin): 0.4 to 1 µM

CC[C@H](C)[C@H](NC(=O)[C@H](CC(C)C)NC(=O)[C@H](Cc1ccccc1)NC(=O)[C@H](Cc1c[nH]c2ccccc12)NC(=O)[C@H](CCSC)NC(=O)[C@H](CCCNC(=N)N)NC(=O)[C@H](CO)NC(=O)[C@@H](N)CCCCN)C(=O)N[C@@H](CO)C(=O)N[C@@H](Cc1ccccc1)C(=O)N[C@@H](Cc1c[nH]c2ccccc12)C(N)=O [compound 83] (H-KSRMWFLISFW-NH2)
EC50 [1]: > 30 µM | viability [2]: 90.9% | Kd (β-catenin): > 30 µM

CC[C@H](C)[C@@H]1NC(=O)[C@H](CC(C)C)NC(=O)[C@H](Cc2ccccc2)NC(=O)[C@H](Cc2c[nH]c3ccccc23)NC(=O)[C@@H](N)CC(=O)NCCCC[C@@H](C(=O)NCC(=O)O)NC(=O)[C@H](Cc2c[nH]c3ccccc23)NC(=O)[C@H](C)NC(=O)[C@H](CS)NC1=O [compound 178] (HELM PEPTIDE1{D.W.F.L.I.C.A.W.K.G}$PEPTIDE1,PEPTIDE1,1:R3-9:R3$$$V2.0)
EC50 [1]: < 7.5 µM | viability [2]: 91.8% | Kd (β-catenin): > 30 µM

CC[C@H](C)[C@@H]1NC(=O)[C@H](CC(C)C)NC(=O)[C@H](Cc2ccccc2)NC(=O)[C@H](Cc2c[nH]c3ccccc23)NC(=O)[C@@H](NC(C)=O)CC(=O)NCCCC[C@@H](C(=O)NCC(=O)O)NC(=O)[C@H](Cc2c[nH]c3ccccc23)NC(=O)[C@H](Cc2ccccc2)NC(=O)[C@H](CS)NC1=O [compound 175] (HELM PEPTIDE1{[ac].D.W.F.L.I.C.F.W.K.G}$PEPTIDE1,PEPTIDE1,2:R3-10:R3$$$V2.0)
EC50 [1]: 7.5 to 15 µM | viability [2]: 100% | β-Cat FP Hill slope (β-catenin): 0.7 | Kd (β-catenin): 10 to 30 µM

CC[C@H](C)[C@H](NC(=O)[C@H](CC(C)C)NC(=O)[C@@H](NC(=O)[C@H](Cc1c[nH]c2ccccc12)NC(=O)[C@H](CCSC)NC(=O)[C@@H](N)Cc1c[nH]cn1)[C@@H](C)CC)C(=O)N[C@@H](CS)C(=O)N[C@@H](Cc1ccccc1)C(=O)N[C@@H](Cc1c[nH]c2ccccc12)C(=O)NCC(=O)O [compound 114] (H-HMWILICFWG-OH)
EC50 [1]: < 7.5 µM | viability [2]: 123% | β-Cat FP Hill slope (β-catenin): 0.7 | Kd (β-catenin): 1 to 10 µM

CC[C@H](C)[C@@H]1NC(=O)[C@H](CC(C)C)NC(=O)[C@H]([C@@H](C)CC)NC(=O)[C@H](Cc2c[nH]c3ccccc23)NC(=O)[C@H](CCSC)NC(=O)[C@@H](N)CCCCNC(=O)CNC(=O)[C@H](Cc2c[nH]c3ccccc23)NC(=O)[C@H](Cc2ccccc2)NC(=O)[C@H](CO)NC1=O [compound 71] (HELM PEPTIDE1{K.M.W.I.L.I.S.F.W.G}$PEPTIDE1,PEPTIDE1,1:R3-10:R2$$$V2.0)
EC50 [1]: > 30 µM | viability [2]: 93.7% | Kd (β-catenin): > 30 µM

CC[C@H](C)[C@H](NC(=O)[C@H](CC(C)C)NC(=O)[C@H](Cc1ccccc1)NC(=O)[C@H](Cc1c[nH]c2ccccc12)NC(=O)[C@@H](N)CCSC)C(=O)N[C@@H](C)C(=O)N[C@@H](C)C(=O)N[C@@H](Cc1c[nH]c2ccccc12)C(=O)NCC(=O)O [compound 212] (H-MWFLIAAWG-OH)
EC50 [1]: < 7.5 µM | viability [2]: 99.3% | β-Cat FP Hill slope (β-catenin): 1.05 | Kd (β-catenin): 0.4 to 1 µM

CC[C@H](C)[C@H](NC(=O)[C@H](CC(C)C)NC(=O)[C@@H](NC(=O)[C@H](Cc1c[nH]c2ccccc12)NC(=O)[C@H](CCSC)NC(=O)[C@@H](N)CCCNC(=N)N)[C@@H](C)CC)C(=O)N[C@@H](CO)C(=O)N[C@@H](Cc1ccccc1)C(=O)N[C@@H](Cc1c[nH]c2ccccc12)C(=O)NCC(=O)O [compound 124] (H-RMWILISFWG-OH)
EC50 [1]: 7.5 to 15 µM | viability [2]: 102% | Kd (β-catenin): > 30 µM

CC[C@H](C)[C@H](NC(=O)[C@H](CC(C)C)NC(=O)[C@H](Cc1ccccc1)NC(=O)[C@H](Cc1c[nH]c2ccccc12)NC(C)=O)C(=O)N[C@@H](CS)C(=O)N[C@@H](Cc1ccccc1)C(=O)N[C@@H](Cc1c[nH]c2ccccc12)C(=O)NCC(=O)O [compound 194] (Ac-WFLICFWG-OH)
EC50 [1]: < 7.5 µM | viability [2]: 106% | β-Cat FP Hill slope (β-catenin): 3 | Kd (β-catenin): 0.4 to 1 µM

CC[C@H](C)[C@H](NC(=O)[C@H](CC(C)C)NC(=O)[C@@H](NC(=O)[C@H](Cc1c[nH]c2ccccc12)NC(=O)[C@@H](N)CCSC)[C@@H](C)CC)C(=O)N[C@@H](CS)C(=O)N[C@@H](Cc1ccccc1)C(=O)N[C@@H](Cc1c[nH]c2ccccc12)C(=O)NCC(=O)O [compound 116] (H-MWILICFWG-OH)
EC50 [1]: < 7.5 µM | viability [2]: 123% | β-Cat FP Hill slope (β-catenin): 0.72 | Kd (β-catenin): 0.4 to 1 µM

CC[C@H](C)[C@H](NC(=O)[C@H](CC(C)C)NC(=O)[C@H](Cc1ccccc1)NC(=O)[C@H](Cc1c[nH]c2ccccc12)NC(=O)[C@H](CCSC)NC(=O)[C@H](CCCNC(=N)N)NC(=O)[C@H](CO)NC(=O)[C@@H](N)CC(=O)O)C(=O)N[C@@H](CO)C(=O)N[C@@H](Cc1ccccc1)C(=O)N[C@@H](Cc1c[nH]c2ccccc12)C(N)=O [compound 85] (H-DSRMWFLISFW-NH2)
EC50 [1]: > 30 µM | viability [2]: 107% | Kd (β-catenin): > 30 µM

CC[C@H](C)[C@@H]1NC(=O)[C@H](CC(C)C)NC(=O)[C@H]([C@@H](C)CC)NC(=O)[C@H](Cc2c[nH]c3ccccc23)NC(=O)[C@@H](NC(C)=O)CCCCNC(=O)CC[C@@H](C(=O)O)NC(=O)[C@H](Cc2c[nH]c3ccccc23)NC(=O)[C@H](C)NC(=O)[C@H](CO)NC1=O [compound 188] (HELM PEPTIDE1{[ac].K.W.I.L.I.S.A.W.E}$PEPTIDE1,PEPTIDE1,2:R3-10:R3$$$V2.0)
EC50 [1]: < 7.5 µM | viability [2]: 97.6% | β-Cat FP Hill slope (β-catenin): 0.7 | Kd (β-catenin): 10 to 30 µM

CC[C@H](C)[C@H](NC(=O)[C@H](CC(C)C)NC(=O)[C@H](CC(C)C)NC(=O)[C@H](Cc1c[nH]c2ccccc12)NC(=O)[C@H](CCSC)NC(=O)[C@H](CCCNC(=N)N)NC(=O)[C@H](CO)NC(=O)[C@@H](N)CCSC)C(=O)N[C@@H](CO)C(=O)N[C@@H](Cc1ccccc1)C(=O)N[C@@H](Cc1c[nH]c2ccccc12)C(=O)NCC(=O)O [compound 60] (H-MSRMWLLISFWG-OH)
EC50 [1]: 7.5 to 15 µM | viability [2]: 101% | Kd (β-catenin): > 30 µM

CC[C@H](C)[C@@H]1NC(=O)[C@H](CC(C)C)NC(=O)[C@H](Cc2ccccc2)NC(=O)[C@H](Cc2c[nH]c3ccccc23)NC(=O)[C@@H](N)CCCCNC(=O)CC[C@@H](C(=O)O)NC(=O)[C@H](Cc2c[nH]c3ccccc23)NC(=O)[C@H](C)NC(=O)[C@H](CO)NC1=O [compound 183] (HELM PEPTIDE1{K.W.F.L.I.S.A.W.E}$PEPTIDE1,PEPTIDE1,1:R3-9:R3$$$V2.0)
EC50 [1]: < 7.5 µM | viability [2]: 97% | β-Cat FP Hill slope (β-catenin): 0.7 | Kd (β-catenin): 1 to 10 µM
